Assay results as given in PubChem BioAssay AID449764 (Southern Research Specialized Biocontainment Screening …, 2010).
pIC50: −log10 of the molar value.

Tested on: Mycobacterium tuberculosis H37Rv growth inhibition, no glycerol
Test: Confirmatory growth inhibition assay, Mycobacterium tuberculosis H37Rv, absence of glycerol (AID 449764);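 note: growth read after 7 days of incubation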
Details: for IC90: measured here: IC90 growth inhibition

Structure (SMILES)	pIC50	IC90
c1ccc(-c2nc(N3CCCC3)nc3ccccc23)cc1	4.33	53.5 µM
c1ccc(CN2CCC(Nc3nc(-c4ccccc4)nc4ccccc34)CC2)cc1	4.96	16.6 µM
Cc1ccc(N2C(=O)C(F)(F)C2c2ccccc2)cc1 (stereo unspecified)	5.34	7.9 µM
C=CCNc1oc(-c2ccc(-c3ccccc3)cc2)nc1C#N	4.79	19.6 µM
COc1ccc(C=C2C=C(C(C)(C)C)C(=O)C(C(C)(C)C)=C2)cc1OC	5.31	7.13 µM
Nc1ccc(Oc2ccc(F)cc2)nc1	4.15	85.7 µM
COc1cc(OC)c(OC)cc1CCC(C)NCCC(c1ccccc1)c1ccccc1 (stereo unspecified)	4.63	26.7 µM
COc1ccc(NC(=O)CSc2nnc(-c3ccccn3)n2N)cc1Cl	4.25	> 100 µM
CC(C)OC(=O)CCCCCN1C(=O)CSC1=S	4.94	19.2 µM
CCOC(=O)COc1cc([N+](=O)[O-])cc2cccnc12	4.52	46.4 µM
CCOC(=O)c1ccccc1NC(=O)COc1coc(CN2CCc3ccccc32)cc1=O	4.57	47.8 µM
COc1c[nH]n(C2CCCCC2)c(=O)c1=O	4.62	27.6 µM
N=c1n(Cc2ccc(Cl)cc2)c2ccccc2n1CC(O)COc1ccccc1 (stereo unspecified)	4.64	27.2 µM
Cc1cccc(/C=C2/S/C(=N/N=C3\CC4CCC3(C)C4(C)C)NC2=O)c1 (stereo unspecified)	4.59	> 100 µM
COc1ccccc1C1c2ccc3ccccc3c2Oc2ncn(CCN(C)C)c(=N)c21 (stereo unspecified)	4.60	28.9 µM
Cc1cncn1CCc1nc2c3ccccc3nc(SCC(=O)Nc3cccc(Cl)c3)n2n1	4.56	31.9 µM
CCCOP(=O)(OCCC)c1c([N+](=O)[O-])cc(C(F)(F)F)cc1[N+](=O)[O-]	5.26	7.7 µM
Cc1ccc2[nH]c(C)c(CCNC(=O)c3cc4cc([N+](=O)[O-])ccc4oc3=O)c2c1	4.95	17.8 µM

Structure (SMILES)	pIC50	IC90
Cc1nc2ccccc2c2nc3ccccc3n12	4.51	48.4 µM
C=CCN(CC=C)C(=S)NC(=O)c1ccc(-c2ccccc2)cc1	4.87	22.4 µM
Cc1nn2c(NCc3ccccn3)cc(C(C)C)nc2c1-c1ccccc1	5.55	3.23 µM
Cc1nc([N+](=O)[O-])c(Br)n1CC(=O)c1ccc2ccccc2c1	4.95	12.7 µM
Cc1cc(OCc2cc(C(=O)N(C)CCc3cnn(C)c3)no2)cc(C)c1Cl	4.46	56.2 µM
Cc1cc([N+](=O)[O-])c2ccccc2[n+]1[O-]	5.06	13.8 µM
c1ccc(Cn2c3ccccc3c3nnc(SCCN4CCCCC4)nc32)cc1	4.56	42.1 µM
Cc1[nH]n(S(=O)(=O)Cc2ccccc2)c(=O)c1N=Nc1ccccc1Cl	4.74	28.7 µM
Cn1c(-c2c(N)n(CCc3ccccc3)c3nc4ccccc4nc23)nc2ccccc21	4.75	> 100 µM
CC(C)(C)c1ccc(Cn2nnc3c(=O)[nH]c(C4CCCN(C(=O)Cc5cccs5)C4)nc32)cc1 (stereo unspecified)	4.44	46.6 µM
C/C(=N/Nc1cc(-c2ccccc2)nc(-c2ccccc2)n1)c1ccc(O)cc1	5.01	12.7 µM
O=C(OCC(=O)c1cccs1)C1=COCCO1	4.52	> 100 µM
CCCCCCc1cc2cc(C(=O)NCc3ccccc3)c(=N)oc2cc1O	5.25	6.45 µM
O=C(CCC(=O)NC1CCCCCCC1)Nc1nnc(C(F)(F)F)s1	4.92	13.8 µM
Cc1cc(=O)n2cccc(O)c2n1	4.93	21.5 µM
CCN(CC)c1ccc(/C=C2\SC(=O)N(C(C)C)C2=O)o1	5.54	4.69 µM
O=C(CCN1C(=O)/C(=C/c2ccccc2)SC1=S)Nc1ccccn1	–	> 100 µM
CC(C)OC(=O)CSc1nc2ccccc2s1	4.66	36.7 µM
